In patent US20160367557A1, “HE[…] ACID DERIVATIVES WHICH ARE USEFUL IN THE TREATMENT, AMELIORATION OR PREVENTION OF A VIRAL DISEASE” (Savira pharmaceuticals GmbH, priority 2012, published 2016):

Assays:
[1] = system: influenza A virus (IAV) A/Aichi/2/68 (H3N2); assay: Cytopathic effect (CPE) assay; type: cell-based; details: MDCK cells, 48 hrs
[2] = target: T1, influenza A virus (IAV) PA-Nter fragment (amino acids 1-209) (Influenza A virus, UniProt P31343); assay: FRET endonuclease activity assay; type: biochemical; details: for IC50: calculated from initial reaction velocities (v0)
T1 construct: PA-Nter fragment (amino acids 1-209); made in house

MDCK cells = assay: Cytotoxicity in uninfected cells of the CPE assay; type: cell-based, canine; details: at 50 μM
Procedure: After removal of the culture medium and one washing step with PBS, virus and compound were added together to the cells. In the wells used for cytotoxicity determination (i.e. in the absence of viral infection), no virus suspension was added. Instead, infection medium was added. Each treatment was conducted in two replicates. After incubation at 37° C., 5% CO2 for 48 hrs, each well was observed microscopically for apparent cytotoxicity, precipitate formation, or other notable abnormalities. Then, cell viability was determined using CellTiter-Glo luminescent cell viability assay (Promega). The supernatant was removed carefully and 65 μl of the reconstituted reagent were added to each well and incubated with gentle shaking for 15 min at room temperature. Then, 60 μl of the solution was transferred to an opaque plate and luminescence (RLU) was measured using Synergy HT plate reader (Biotek).
Relative cell viability values of uninfected-treated versus uninfected-untreated cells were used to evaluate cytotoxicity of the compounds. Substances with a relative viability below 80% at the tested concentration were regarded as cytotoxic and retested at lower concentrations.

O=CNc1nc2c(=O)c(C(=O)O)cn(Cc3ccccc3-c3ccccc3)c2s1
CPE activity in words [1]: inactive
IC50 [2]: 47 µM

O=C(O)c1cn(Cc2ccccc2-c2ccccc2)c2sc(N3CCCCC3)nc2c1=O
FRET activity in words [2]: inactive

CNC(=O)c1cn(Cc2ccccc2-c2ccccc2)c2sc(NCc3ccccc3)nc2c1=O
FRET activity in words [2]: inactive

CSC1=NC2C(=O)C(C(=O)O)=CN(Cc3ccccc3-c3ccccc3)C2S1 (stereo not drawn)
CPE activity in words [1]: inactive
Cytotoxicity (relative viability below 80% regarded as cytotoxic) (MDCK cells): Toxic

O=C(O)c1cn(CCc2ccccc2)c2cc(C3CCCC3)nn2c1=O [drawing 219]
CPE activity in words [1]: inactive
FRET % reduction of v0 ([2]; @ 25 μM): 26% @ 25 μM

CCOC(=O)c1cn(Cc2ccccc2-c2ccccc2)c2sc(NS(=O)(=O)c3ccc(Cl)cc3F)nc2c1=O
IC50 ([1]; Influenza A virus, H3N2): 39 µM
FRET activity in words [2]: inactive

O=C(O)c1cn(Cc2ccccc2-c2ccccc2)c2sc(NS(=O)(=O)c3ccc(Cl)cc3)nc2c1=O
IC50 ([1]; Influenza A virus, H3N2): 18 µM
IC50 [2]: 2.2 µM

CCOC(=O)c1cn(Cc2ccccc2-c2ccccc2)c2sc(SC)nc2c1=S
inhibition at 50 µM ([1]; Influenza A virus, H3N2, @ 50 μM, read-out: CPE % reduction): 35%
FRET activity in words [2]: inactive

Nc1cc2n(C(=O)C3(c4ccccc4)CCCC3)cc(C(=O)O)c(=O)n2n1 [drawing 232]
FRET activity in words [2]: inactive

O=C(O)c1cn(Cc2ccccc2-c2ccccc2)c2nc(NCc3ccccc3)sc2c1=O
FRET activity in words [2]: inactive

O=C(O)c1cn(Cc2ccccc2-c2ccccc2)c2sc(NC3CCCC3)nc2c1=O
CPE activity in words [1]: inactive
Cytotoxicity (relative viability below 80% regarded as cytotoxic) (MDCK cells): toxic

CCOC(=O)c1cn(CCc2cccc(F)c2)c2cc(C3CC3)nn2c1=O
melting point: 160 to 165 °C

Cc1[nH]c2ncnn2c(=O)c1CC(=O)O
FRET activity in words [2]: inactive

COc1ccc(CCn2cc(C(=O)O)c(=O)n3nc(C4CC4)cc23)cc1
melting point: 145 to 150 °C

CCOC(=O)c1cn(CCc2cccc(C(F)(F)F)c2)c2cc(C3CC3)nn2c1=O
melting point: 140 to 145 °C

O=C(O)c1cn(Cc2ccccc2-c2ccccc2)c2nc(NC3CCCC3)sc2c1=O
FRET activity in words [2]: inactive

CCOC(=O)Cc1c[nH]c2nc(Nc3ccc(OC(C)C)cc3)nn2c1=O
melting point: 235 to 240 °C

CCOC(=O)c1cn(CCc2ccccc2)c2cc(C3CC3)nn2c1=O
melting point: 155 to 160 °C

CC(C)c1cc2n(CCc3ccccc3)cc(C(=O)O)c(=O)n2n1
melting point: 220 to 225 °C

O=C(O)c1c[nH]c2ccnn2c1=O [drawing 208]
inhibition at 5 µM ([2]; 20 min, @ 5 μM, read-out: FRET % reduction of v0): 26%
